Assay results taken from BindingDB's records for doi:10.1021/jm034088d (Abbott Laboratories, 2003).

Biological target: Tyrosine-protein phosphatase non-receptor type 11, SHP-2 (Homo sapiens) (UniProt Q06124)
Assay: Inhibitory activity against SH-domain containing phosphotyrosine phosphatase-2 (Tyrosine phosphatase SHP2) was determined

Tyrosine-protein phosphatase non-receptor type 11, SHP-2 (Homo sapiens), sequence (Q06124 whole entry, looked up): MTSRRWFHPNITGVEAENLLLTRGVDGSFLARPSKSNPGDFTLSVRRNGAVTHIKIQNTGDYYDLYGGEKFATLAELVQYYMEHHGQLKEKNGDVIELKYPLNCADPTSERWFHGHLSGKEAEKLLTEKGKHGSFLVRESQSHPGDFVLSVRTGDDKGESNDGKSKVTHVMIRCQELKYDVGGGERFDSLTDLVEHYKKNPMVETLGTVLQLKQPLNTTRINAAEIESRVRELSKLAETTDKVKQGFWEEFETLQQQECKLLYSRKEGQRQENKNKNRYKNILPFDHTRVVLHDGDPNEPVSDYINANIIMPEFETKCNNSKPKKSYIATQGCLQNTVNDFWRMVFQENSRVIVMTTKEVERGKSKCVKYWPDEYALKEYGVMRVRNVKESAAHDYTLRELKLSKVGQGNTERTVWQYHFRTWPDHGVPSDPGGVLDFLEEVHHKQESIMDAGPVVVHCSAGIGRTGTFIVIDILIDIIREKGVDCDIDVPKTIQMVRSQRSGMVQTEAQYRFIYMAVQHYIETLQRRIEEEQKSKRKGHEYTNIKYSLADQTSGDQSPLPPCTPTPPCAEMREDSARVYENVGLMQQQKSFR

CCc1cc(CC(NC(C)=O)C(=O)NCCCCOc2cc(Cl)cc(O)c2C(=O)OC)ccc1N(C(=O)C(=O)O)c1ccccc1C(=O)O (configuration not stated) [2-[4-(2-Acetylamino-3-{4-[(2-carboxy-phenyl)-oxalyl-amino]-3-ethyl-phenyl}-propionylamino)-butoxy]-4-chloro-6-hydroxy-benzoic acid methyl ester]
Ki: > 3 µM

C=CCOC(=O)N[C@@H](Cc1ccc(N(C(=O)C(=O)O)c2ccccc2C(=O)O)cc1)C(=O)NCCCCOc1cccc(O)c1C(=O)OC [(S)-2-(N-(4-(2-(allyloxycarbonylamino)-3-(4-(3-hydroxy-2-(methoxycarbonyl)phenoxy)butylamino)-3-oxopropyl)phenyl)-1-carboxyformamido)benzoic acid]
Ki: 96 µM
